From US7776946B2, “Aqueous emulsion polymerization of fluorinated monomers using a fluorinated surfactant” (3M Innovative Properties Company, priority 2005, dated 2010)

Assay: Determination of bio-accumulation: urinary clearance pharmacokinetic study in rats
Format: in vivo, male Sprague Dawley rats
Settings: 73 micro Moles per kg body weight, oral gavage; for T½ (renal half-life): exponential least squares curve fitting of urine concentration (fluorine NMR); for % Recovery (96 h): parent compound in urine up to 96 h; for Compound-related Effects: clinical signs, gross necropsy at 96 hours post-dose
Description: Animals we observed throughout the study for clinical signs of toxicity.

Row | Structure (SMILES) | T½ (renal half-life) | % Recovery (96 h) | Compound-related Effects
1 | N.O=C(O)C(F)(F)C(F)(F)OC(F)(F)F [Compound 1, CF3—O—CF2—CF2—COONH4] | 11 h | 100% | –
2 | N.O=C(O)C(F)(F)C(F)(F)OC(F)(F)C(F)(F)F [Compound 2, C2F5—O—CF2—CF2—COONH4] | 10 h | 100% | –
3 | N.O=C(O)C(F)(F)C(F)(F)OC(F)(F)C(F)(F)C(F)(F)F [Compound 3, C3F7—O—CF2—CF2—COONH4] | 12 h | 82% | –
4 | N.O=C(O)C(F)(F)C(F)(F)C(F)(F)C(F)(F)C(F)(F)C(F)(F)C(F)(F)F [Compound C-1, C7F15COONH4, reference compound] | ~550 h | 6% | Hepatomegaly
5 | N.O=C(O)C(F)(F)C(F)(F)OC(F)(F)C(F)(F)C(F)(F)C(F)(F)F [Compound 4, C4F9—O—CF2—CF2—COONH4] | 31 h | 42% | Hepatomegaly
